From publication PMC12813973, “Consequences of Peptide Macrocyclization Revealed by Virus-Inspired β‑Hairpin Mimetics” (ACS Chemical Biology, 2025) come the findings set out here.

The structures appear in SMILES notation. Like-named read-outs stand apart in the source and are kept apart here.

The target of experiment [1] is T1, STAT1 (Homo sapiens, UniProt P42224).
T1 construct: full-length STAT1 (Uniprot #P42224-1) was expressed in E. coli; His tag (pEXP-NHis vector) (N); made in house; host or cells: E. coli T7 Express
T1 sequence (P42224 1-750): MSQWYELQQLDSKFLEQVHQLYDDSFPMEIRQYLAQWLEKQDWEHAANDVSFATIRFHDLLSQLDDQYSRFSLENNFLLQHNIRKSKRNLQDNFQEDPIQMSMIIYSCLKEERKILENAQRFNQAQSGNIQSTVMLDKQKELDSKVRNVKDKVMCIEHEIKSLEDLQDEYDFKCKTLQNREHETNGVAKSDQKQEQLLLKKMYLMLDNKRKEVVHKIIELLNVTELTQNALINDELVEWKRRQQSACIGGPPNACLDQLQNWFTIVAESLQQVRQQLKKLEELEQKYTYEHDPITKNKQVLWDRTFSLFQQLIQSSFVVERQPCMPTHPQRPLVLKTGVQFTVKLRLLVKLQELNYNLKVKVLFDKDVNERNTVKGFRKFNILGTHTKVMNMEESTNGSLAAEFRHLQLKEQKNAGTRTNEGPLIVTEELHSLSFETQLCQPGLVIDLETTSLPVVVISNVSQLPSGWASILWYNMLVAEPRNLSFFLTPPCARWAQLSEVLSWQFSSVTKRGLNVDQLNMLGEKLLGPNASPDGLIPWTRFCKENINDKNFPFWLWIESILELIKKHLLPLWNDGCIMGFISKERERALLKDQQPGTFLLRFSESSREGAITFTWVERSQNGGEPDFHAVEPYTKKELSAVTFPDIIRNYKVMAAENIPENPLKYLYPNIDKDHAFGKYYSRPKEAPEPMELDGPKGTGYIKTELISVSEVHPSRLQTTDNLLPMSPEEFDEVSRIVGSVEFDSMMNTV
The experiment is described as follows: Fluorescence polarization competition assay with fluorescein-labelled pIFNGR1 docking site peptide probe. Type of experiment: binding. Conditions: 10 nM fluorescein pIFNGR1 probe, STAT1 1.5 μM, 20 mM Tris pH 8.0, 300 mM NaCl, 0.1% Tween-20, 0.5 mM TCEP, 2.5% DMSO, room temperature; four parameter logistic fit; read-out: IC50 (FP competition, pIFNGR1 probe displacement).

Experiment [2] concerns the target T1, STAT1. The experiment is described as follows: Grating-coupled interferometry (GCI) waveRAPID kinetics, immobilised full-length STAT1. Type of experiment: binding. Conditions: for kd / kon at 0.5 µM: analyte 0.5 µM; for kon at 0.5 µM: read-out: ka. From the text: Understanding the molecular determinants of kinetic rate constants of binding (k a, k d) can aid the design of pharmacological probes with longer target engagement, which is beneficial for drug efficacy and decreased toxicity. , We characterized the binding kinetics of 018-derived macrocycles by using grating-coupled interferometry (GCI). We used waveRAPID, a regeneration-free kinetic binding assay that applies sequential analyte pulses of increasing duration onto a GCI biosensor surface with an immobilized target (Figures A, and S3,S4, Table S2).
Grating coupled interferometry (GCI)
GCI experiments were performed on a Creoptix WaveDELTA instrument (Malvern Panalytical). Full-length STAT1 or STAT3 were immobilised on a 4PCH chip (Malvern Panalytical #4PCH-03) to a density 2000-8000 pg/mm2 using EDC/NHS activation followed by amine coupling. Briefly, proteins (500 nM) were applied onto an activated chip in 10 mM MES pH 6.5, 20 mM NaCl, after which the chip surface was passivated with 1M ethanolamine, pH 8.0.
The kinetic measurements were perfor med using 20 mM HEPES pH 7.5, 300 mM NaCl, 0.01% Tween-20, 0.0005% DMSO as running buffer. Peptides were tested at 0.5 or 10 μM concentration using the waveRAPID kinetics experiment with the tight binder or intermediate binder mode, respectively.[4] Sensorgrams were fitted in the waveControl software (Malven Panalytical) using the 1:1 kinetic model. […]

Where [3] appears, read: replicate 1 (first listed run, Table S2).
The mark [4] stands for this setting: replicate 2 (second listed run, Table S2).
Where [5] appears, read: replicate 3 (third listed run, Table S2).

For orientation: IC50 means the point on the concentration scale where inhibition reaches its midpoint. As usually defined, the Kd is the free concentration of one partner at which half of the binding sites on the other are occupied at equilibrium, for simple one-to-one binding. A low value points to tighter binding.

Turning to `CC[C@H](C)[C@H](NC(=O)[C@H](Cc1ccccc1)NC(=O)[C@@H](NC(=O)[C@H](CO)NC(=O)[C@H](Cc1c[nH]c2ccccc12)NC(=O)[C@H](CCSC)NC(C)=O)C(C)C)C(=O)N[C@@H](Cc1c[nH]cn1)C(=O)NCC(=O)N[C@@H](Cc1c[nH]cn1)C(=O)N[C@@H](CC(=O)O)C(=O)NCC(=O)N[C@@H](CO)C(=O)N[C@@H](CC(N)=O)C(=O)N[C@@H](CCCCN)C(=O)NCC(=O)N[C@@H](CO)C(=O)N[C@@H](CCCCN)C(=O)N[C@H](C(=O)N[C@@H](Cc1ccc(O)cc1)C(=O)N[C@H](C(N)=O)[C@@H](C)O)[C@@H](C)O` [Peptide 1], the IC50 on STAT1 [1] turned out to be 4.3 µM. Also, at STAT1 [2] (20 mM HEPES pH 7.5, 300 mM NaCl, 0.01% Tween-20, 1:1 kinetic model, average of 2–4 technical replicates ± SD, SD), binding was characterised by a dissociation constant (Kd) of 0.0858 ± 0.0064 µM. The residence time on STAT1 [2] (STAT1, GCI, read-out: target residence time τ (τ = 1/kd) (converted)) was 0.8 min. Moreover, the kd at STAT1 [2] (setting [3]) was 0.0221 s⁻¹; at STAT1 [2] (setting [4]), 0.0172 s⁻¹; at STAT1 [2] (setting [5]), 0.0226 s⁻¹. In addition, the kon at 0.5 µM at STAT1 [2] (setting [3]) came out at 241000 M⁻¹ s⁻¹; at STAT1 [2] (setting [4]), 217000 M⁻¹ s⁻¹; at STAT1 [2] (setting [5]), 262000 M⁻¹ s⁻¹.
